According to article PMC8467576, “Novel Ubiquitin Specific Protease-13 Inhibitors Alleviate Neurodegenerative Pathology” (Metabolites, 2021):
Several values for one entry are separate records, joined by “and”; a condition that tells them apart may be missing. Identical values can stand only once. Like-named read-outs stand apart in the source and are kept apart here.

How the values were obtained:
[1] = Pharmacokinetics in wild type C57BL6 mice (brain and serum, UHPLC-MS/MS); type: in vivo; details: C57BL/6, mouse, ip, 10 mg/kg I.P.; for AUC: over 12 h; for half-life: read-out: T1/2 (elimination) (converted)
Experimental: Wild type C57BL6 mice were injected with 10 mg/kg BK50118-C versus DMSO, and the brain and serum were isolated at 0, 1, 2, 4, 6, 8 and 12 h; extracted in water and examined by mass spectrometry. […] Elimination (T1/2) was 2.32 h for brain and 1.84 h in serum.
C57BL/6 mice received a single intraperitoneal dose (10 mg/kg) of BK50118-C. Brain and serum samples were collected at 1, 2, 3, 4, 8 and 12 h (n = 3 per time point). Animals injected with vehicle (DMSO) were used for background subtraction. Stock solution of the drug (1 mg/mL) and internal standards were prepared in methanol. Intermediate solutions used for the calibrators and control samples were serial-diluted in methanol/water (1:1). Preparation of the calibration curve standards and quality samples (QC) were performed by mixing the intermediate dilutions in blank samples (brain homogenates, serum). The internal standard working solution contained deuterium labeled BK50118-C-d7 at the concentration of 5 ng/mL diluted in acetonitrile (ACN)/ethyl acetate (4:1). Serum and brain samples were stored at −80 °C and then thawed to room temperature prior to preparation. The brains were homogenized in MilliQ water (1 mg brain: 10 µL water). Proteins were precipitated in both brain and serum samples by mixing 25 µL aqueous sample with 75 µL internal standard working solution. The mixture was centrifuged at 12,300× g for 5 min. Thereafter, 75 µL of each supernatant and 25 µL of MilliQ water were pipetted into a 96-well PCR plate (Fisher Scientific, Dawsonville, GA, USA).
The concentrations of BK50118-C in the brain tissue and serum samples were measured by ultrahigh performance liquid chromatography tandem mass spectrometry (UHPLC-MS/MS). Briefly, the UHPLC-MS/MS system included an Elute HTG binary gradient UHPLC pump, an Elute column oven and an EVOQ Elite triple quadrupole mass spectrometer (all from Bruker Daltonik GmbH, Bremen, Germany) equipped with an electrospray ionization (ESI) source operating in a positive mode. The samples were injected by use of a PAL auto sampler (CTC Analytics, Zwingen, Switzerland) equipped with a 10-µL sample loop; the samples were kept in a PAL stack cooler for 6 microtiter plates and operating at +6 °C. The system was controlled by a Compass 2.0/HyStar 4.0 software (Bruker); the compound screening and quantitation was performed by a TASQ 2.2 data acquisition and processing software (Bruker). The mass spectrometer was supplied by nitrogen and air generated by a Genius 3045 nitrogen/air generator (Peak Scientific Instruments, Inchinnan, Scotland, UK). The ESI parameters were as follows: probe gas flow 50, nebulizer gas flow 60, probe temperature +400 °C, cone gas flow 20, cone temperature +350 °C, CID gas Ar 1.5 mTorr. The mass spectra were scanned in the MRM mode to find the optimal collision energies for the test compounds and their respective precursor ions.
For chromatographic separation, an YMC-Ultra HT Hydrosphere C18 column (2.0 × 100 mm, 2 µm particle size) and an YMC-Hydrosphere 2.1 × 5 mm guard column (YMC Co. Ltd., Kyoto, Japan) were used. The mobile phase A was 10 mM ammonium formate, pH 4.3, in water; the mobile phase B was 10 mM ammonium formate, pH 4.3, in 10% water, 50% acetonitrile and 40% isopropyl alcohol. The mobile phase gradient was as follows (min—A/B%): 0 min—50/50, 0.5 min—50/50, 2.0 min—20/80, 3 min—20/80, 3.1 min—50/50, 4.5 min—50/50. The flow rate was 450 µL/min, and the column temperature was set at 50 °C. The sample injection volume was 10 µL.

human alpha-synuclein = assay: Alpha-synuclein levels in TgA53T mice (WB, ELISA, DAB staining); type: in vivo, mouse; details: vs DMSO; for reduction of number of human alpha-synuclein positive neurons: 40 mg/Kg I.P. daily for 7 days
Experimental: Male and female TgA53T mice (15 months old) were treated daily with intraperitoneal injection of DMSO versus 10 mg/kg or 40 mg/kg BK50118-C for 7 days. […] ELISA measurement of alpha-synuclein in the same extracts (Figure 4C) confirmed that human alpha-synuclein was reduced by about 30% (10 mg/kg) and 56% (40 mg/kg), respectively (Figure 4C).
BK50118-C is one of novel small molecule inhibitors of USP13 synthesized in our laboratory. For BK50118-C treatment, approximately 15 months old (±1 month) male and female TgA53T mice were treated with intraperitoneal injection of vehicle (DMSO) or BK50118-C at the daily dosage of 10 mg/Kg or 40 mg/Kg for 7 days. Animals were age and sex-matched in their respective treatment cohorts. All animals were sacrificed after treatment. All experiments were conducted in full compliance with the recommendations of Georgetown University Animal Care and Use Committee. These experiments were conducted under animal protocol No. 2016-1194 titled, Misfolded Protein Clearance in Neurodegeneration, which was approved by the Georgetown University IACUC. Protocol Information: IACUC Protocol Number: 2016-1194. Protocol Approval Date: 14 September 2020 Expiration Date: 14 September 2023.
To extract the soluble proteins from mouse midbrain lysates, tissues were isolated and homogenized in 1x STEN buffer (50 mM Tris (pH 7.6), 150 mM NaCl, 2 mM EDTA, 0.2% NP-40, 0.2% BSA, 20 mMPMSF and protease cocktail inhibitor), centrifuged at 10,000× g for 20 min at 4 °C, and the supernatant containing the soluble protein fraction was collected. Extracts were analyzed by Western blot (WB) on 4–12% SDS NuPAGE Bis-Tris gel (Invitrogen, NP0301BOX). Beta-actin (β-actin) was probed (1:3000) with monoclonal antibody (Emdmillipore, MAB1501R, Burlington, MA, USA). Human alpha-synuclein was probed (1:2000) with monoclonal antibody (Thermo Fisher, AHB0261, Rockford, IL, USA). USP13 was probed (1:1000) with polyclonal antibody (ThermoFisher, PA5-12014, Rockford, IL, USA). Ubiquitin was probed (1:5000) with polyclonal antibody (Thermo Fisher, PA3-16717, Rockford, IL, USA). WBs were quantified by densitometry using Quantity One 4.6.3 software (Bio Rad, Hercules, CA, USA) and Image J.
The ELISA for USP13 (MyBioSource, Cat # MBS9335287, San Diego, CA, USA), Human alpha-synuclein (Biolegend, Cat # 844101, San Diego, CA, USA) and specific p-Tau ser396 (Invitrogen, KHB7031, Waltham, MA, USA) were performed on cell or brain tissue extracts as described above according to manufacturers’ protocol.
DAB staining was performed for alpha-synuclein (Thermo Fisher, AHB0261, Rockford, IL, USA) on the 20 µm thick mouse brain sections, and stereological counting of alpha-synuclein+ neurons counterstained with Nissl was conducted.

- Kp ([1]; brain and serum, read-out: Ratio of Serum/Brain): 0.28
- Cmax ([1]; brain): 81.5 nM and 20.6 ng/mL
- Tmax ([1]; brain): 1 h
- AUC ([1]; brain): 0.164 ± 0.0395 µM·h
- half-life ([1]; brain): 2.32 h
- Cmax ([1]; serum): 89.7 ng/mL and 355 nM
- Tmax ([1]; serum): 1 h
- AUC ([1]; serum): 0.599 ± 0.143 µM·h
- half-life ([1]; serum): 1.84 h
SMILES: Fc1ccc2nccc(OCc3ccccc3)c2c1 [BK50118-C, 4-benzyloxy-6-fluoroquinoline]
- reduction of human alpha-synuclein in midbrain extracts (ELISA) (human alpha-synuclein; 10 mg/kg I.P. daily for 7 days): about 30%
- human alpha-synuclein in midbrain lysates (WB) (human alpha-synuclein; 10 mg/kg or 40 mg/kg I.P. daily for 7 days): significantly reduced
- reduction of human alpha-synuclein in midbrain extracts (ELISA) (human alpha-synuclein; 40 mg/kg I.P. daily for 7 days): ~56%
- reduction of number of human alpha-synuclein positive neurons (human alpha-synuclein; cortex): 42%
- reduction of number of human alpha-synuclein positive neurons (human alpha-synuclein; striatum): 40%
